Source: patent US6461997B1, “Triazole sulfones having herbicidal activity” (Monsanto Technology LLC, priority 1999, dated 2002)

Tests used:
[1] = tested on: PANMI (wild proso millet); experiment: Pre-emergence herbicidal activity, warm season; type: in vivo, Panicum miliaceum; conditions: GR80 = lowest tested rate (300, 100, 30, 10 g/ha) with 80% or greater inhibition; approx. 14 days after treating; 30/21° C.
How it was run: (§1)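 Seeds were sown in sterilized, fertilized topsoil, covered, and the soil surface was sprayed with compound in 50:50 acetone/water at 300, 100, 30 and 10 g/ha. Pots were held at 30/21 °C day/night (PANMI, DIGSA) or 18/13 °C (ALOMY, POLCO). GR80 came from percent inhibition versus untreated plants at about 14 days.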

SORVU (shattercane) = experiment: Pre-emergence herbicidal activity, warm season; type: in vivo, Sorghum vulgare; conditions: GR80 = lowest tested rate (300, 100, 30, 10 g/ha) with 80% or greater inhibition; approx. 14 days after treating; 30/21° C.
How it was run: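 Activity is expressed as the rate giving 80% inhibition, with 300, 100, 30 and 10 g/ha typically tested. An asterisk marks activity short of 80% at the top rate. Warm-season grasses were held at 30/21 °C; cool-season blackgrass and wild buckwheat at 18/13 °C; scoring at about 14 days.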

DIGSA (large crabgrass) [2] = experiment: Pre-emergence herbicidal activity, warm season; type: in vivo, Digitaria sanguinalis; conditions: GR80 = lowest tested rate (300, 100, 30, 10 g/ha) with 80% or greater inhibition; approx. 14 days after treating; 30/21° C.
How it was run: as §1

DIGSA (large crabgrass) [3] = experiment: Pre-plant incorporated (PPI) herbicidal activity, warm season; type: in vivo, Digitaria sanguinalis; conditions: for Percent inhibition DIGSA: PPI application; for PPI activity GR80, DIGSA: pre-plant incorporated, lowest tested rate with 80% or greater inhibition, about 14 days
Procedure: (§2) In another set of tests, the pre-plant incorporated (PPI) activity of compounds of this invention was evaluated on the same species as for the pre-emergence tests described above. In the PPI tests the following procedure, designed to simulate PPI application, was used.
(§3) A pre-prepared topsoil mixture (described above) was placed in a pot and compacted to a depth of 1.0 to 1.25 cm from the top of the pot. Seeds of each of several monocotyledonous and dicotyledonous annual plant species were placed on top of the soil. A sufficient quantity of soil to cover the seeds and level fill the pot was weighed into an open container. A known amount of the test compound was dissolved or suspended in an organic solvent and applied by spraying to this cover soil. The cover soil was thoroughly mixed to distribute the test compound throughout the cover soil, and was then applied as a cover layer over the seeds. Untreated soil was used as a cover layer for control pots. After treatment the plants were placed in a greenhouse where they received 0.64 cm of overhead irrigation. All subsequent watering consisted of a light overhead mist and/or subirrigation as needed for germination and growth. Tables 9 and 10 below relate to warm season plant species which were placed after pre-emergence treatment in a greenhouse with a 30/21° C. day/night temperature regime. Tables 11 and 12 below relates to cool season plant species placed after pre-emergence treatment in a greenhouse or growth chamber with an 18/13° C. day/night temperature regime. Only the compounds of Examples 1, 6, 8, 11, 13 and 15-20 were included in PPI tests.
(§4) Approximately 14 days after planting and treating, the plants were observed and herbicidal efficacy recorded as percent inhibition by comparison with untreated plants.

POLCO (wild buckwheat) = experiment: Pre-plant incorporated (PPI) herbicidal activity, cool season; type: in vivo, Polygonum convolvulus; conditions: for Percent inhibition POLCO: weed, PPI application; for PPI activity GR80, POLCO: pre-plant incorporated, lowest tested rate with 80% or greater inhibition, about 14 days
Procedure: as §2, §3, §4

BROTE (downy brome) [4] = experiment: as above; type: in vivo, Bromus tectorum; conditions: for Percent inhibition BROTE: weed, PPI application; for PPI activity GR80, BROTE: pre-plant incorporated, lowest tested rate with 80% or greater inhibition, about 14 days
Procedure: as §2, §3, §4

SETVI (green foxtail) = experiment: Post-emergence herbicidal activity, cool season; type: in vivo, Setaria viridis; conditions: abraded plants sprayed at 300, 100, 30 and 10 g/ha; about 14 days after treatment
Procedure: (§5) In another set of tests, the post-emergence activity of compounds of this invention was evaluated on the cool season species listed above. The following procedure was used.
(§6) A pre-prepared topsoil mixture (described above) was placed in a pot and compacted to a depth of 1.0 to 1.25 cm from the top of the pot. Seeds of each of several monocotyledonous and dicotyledonous annual plant species were placed on top of the soil. The seeds were covered with a mixture of 50% topsoil and 50% Rediearth™ in sufficient quantity to level-fill the pots. The pots were then placed on a greenhouse bench and subirrigated as needed.
(§7) When plants growing from the seeds had emerged and reached a suitable growth stage for post-emergence treatment, typically 9 to 14 days after planting, above-ground parts of the plants were subjected to a pre-treatment involving abrasion to create greater opportunity for foliar uptake of subsequently applied compounds. Abrasion was performed using garnet 200w particles applied with a Sears Craftsman hand-held sandblaster operated at approximately 850 kPa (50 psig) pressure.
(§8) A known amount of each test compound dissolved or suspended in an appropriate organic solvent was diluted with a 50:50 mix of acetone and water and applied to the plants by spraying with a standard spray nozzle in a spray volume of […] at a spray pressure of 511 kPa (30 psig). Only the compounds of Examples 1, 8-15 and 17-22 were included in post-emergence tests. Application rates for these compounds were 300, 100, 30 and 10 g/ha. Control plants were abraded but not sprayed.
(§9) After treatment the plants were placed in a greenhouse with an 18/13° C. day/night temperature regime and were subsequently watered as needed for growth. Approximately 14 days after treatment, the plants were observed and herbicidal efficacy recorded as percent inhibition by comparison with control plants. GR80 values were assigned for each compound as described above for the pre-emergence tests.

LOLMG (annual ryegrass) = experiment: Post-emergence herbicidal activity, cool season; type: in vivo, Lolium multiflorum; conditions: abraded plants sprayed at 300, 100, 30 and 10 g/ha; about 14 days after treatment
Procedure: as §5, §6, §7, §8, §9

BROTE (downy brome) [5] = experiment: Post-emergence herbicidal activity, cool season; type: in vivo, Bromus tectorum; conditions: abraded plants sprayed at 300, 100, 30 and 10 g/ha; about 14 days after treatment
Procedure: as §5, §6, §7, §8, §9

AVEFA (wild oat) = experiment: Post-emergence herbicidal activity, cool season; type: in vivo, Avena fatua; conditions: abraded plants sprayed at 300, 100, 30 and 10 g/ha; about 14 days after treatment
Procedure: as §5, §6, §7, §8, §9

Row | SMILES | Pre-emergence activity (GR80) PANMI [1] [g/ha] | Pre-emergence activity (GR80) SORVU (SORVU (shattercane)) | Pre-emergence activity (GR80) DIGSA (DIGSA (large crabgrass) [2]) [g/ha] | Percent inhibition DIGSA (DIGSA (large crabgrass) [3]; 30 g/ha) [%] | Percent inhibition DIGSA (DIGSA (large crabgrass) [3]; 100 g/ha) [%] | Percent inhibition DIGSA (DIGSA (large crabgrass) [3]; 300 g/ha) [%] | Percent inhibition DIGSA (DIGSA (large crabgrass) [3]; 900 g/ha) [%] | Percent inhibition POLCO (POLCO (wild buckwheat); 30 g/ha) [%] | Percent inhibition POLCO (POLCO (wild buckwheat); 100 g/ha) [%] | Percent inhibition POLCO (POLCO (wild buckwheat); 300 g/ha) [%] | Percent inhibition POLCO (POLCO (wild buckwheat); 900 g/ha) [%] | Percent inhibition BROTE (BROTE (downy brome) [4]; 30 g/ha) [%] | Percent inhibition BROTE (BROTE (downy brome) [4]; 100 g/ha) [%] | Percent inhibition BROTE (BROTE (downy brome) [4]; 300 g/ha) [%] | Percent inhibition BROTE (BROTE (downy brome) [4]; 900 g/ha) [%] | PPI activity GR80, DIGSA (DIGSA (large crabgrass) [3]) [g/ha] | PPI activity GR80, POLCO (POLCO (wild buckwheat)) [g/ha] | PPI activity GR80, BROTE (BROTE (downy brome) [4]) | Percent inhibition DIGSA (DIGSA (large crabgrass) [3]; 10 g/ha) [%] | Percent inhibition POLCO (POLCO (wild buckwheat); 10 g/ha) [%] | also measured
1 | CCN(CC)C(=O)n1cnc(S(=O)(=O)C(F)(F)F)n1 [Example 2] | 30 | 300 g/ha | 300 | 85 | 99 | 90 | 100 | 40 | 40 | 65 | 100 | 0 | 40 | 50 | 100 | – | – | – | – | – | –
2 | CCN(CC)C(=O)n1cnc(S(=O)(=O)C(F)(F)Cl)n1 [Example 3] | 30 | 100 g/ha | 100 | 70 | 100 | 100 | 100 | 60 | 70 | 90 | 100 | 0 | 30 | 90 | 95 | – | – | – | – | – | –
3 | CCN(CC)C(=O)n1cnc(S(=O)(=O)C(F)(F)C(F)(F)Br)n1 [Example 4] | 100 | * (activity observed, at least at highest rate, but <80% inhibition) | 100 | 85 | 90 | 100 | 100 | 0 | 60 | 90 | 100 | 0 | 50 | 85 | 90 | – | – | – | – | – | –
4 | CCN(CC)C(=O)n1cnc(S(=O)(=O)C(F)(F)C(=O)c2ccccc2)n1 [Example 6] | 300 | * (activity observed, at least at highest rate, but <80% inhibition) | 300 | – | – | – | – | – | – | – | – | – | – | – | – | 100 | 300 | * (activity observed, at least at highest rate, but <80% inhibition) | – | – | –
5 | CCN(CC)C(=O)n1cnc(S(=O)(=O)C(F)(F)SCc2ccccc2)n1 [Example 10] | 300 | – | 100 | 0 | 90 | 85 | 100 | 0 | 60 | 80 | 95 | 0 | 10 | 35 | 60 | – | – | – | 0 | 0 | Percent inhibition BROTE (BROTE (downy brome) [4]; 10 g/ha): 0%; Post-emergence activity GR80, SETVI (SETVI (green foxtail)): [empty]; Post-emergence activity GR80, LOLMG (LOLMG (annual ryegrass)): [empty]; Post-emergence activity GR80, BROTE (BROTE (downy brome) [5]): [empty]; Post-emergence activity GR80, AVEFA (AVEFA (wild oat)): [empty]
6 | CCN(CC)C(=O)n1cnc(S(=O)(=O)C(F)(F)C(F)F)n1 [Example 16] | 30 | 100 g/ha | 30 | 100 | 90 | 100 | 100 | 0 | 0 | 0 | 95 | 0 | 35 | 40 | 90 | 10 | 100 | 300 g/ha | 70 | 0 | Percent inhibition BROTE (BROTE (downy brome) [4]; 10 g/ha): 0%
